PubChem BioAssay (NCI)
“And” between values parts separate entries of the source, which are not always exact repeats. Equal entries are not always repeated.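 Dose response: 5 concentrations. Exposure: 48 h. Format: 96-well plates. Endpoint: linear interpolation; highest concentration if not reached. GI50: concentration for 50% inhibition of growth. TGI denotes the concentration required for complete inhibition of growth.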

What was measured:
Assay in all cases: inhibition of tumour cell growth, NCI panel, 48 h
HCT-116 colon = test system: HCT-116 colon
SF-268 CNS = test system: SF-268 CNS
HOP-62 NSCLC = test system: HOP-62 NSCLC
SF-295 CNS = test system: SF-295 CNS
SK-OV-3 ovarian = test system: SK-OV-3 ovarian
HOP-92 NSCLC = test system: HOP-92 NSCLC
MALME-3M melanoma = test system: MALME-3M melanoma
LOX IMVI melanoma = test system: LOX IMVI melanoma
UO-31 renal = test system: UO-31 renal
NCI-H226 lung = test system: NCI-H226 lung
OVCAR-8 ovarian = test system: OVCAR-8 ovarian
HT29 colon = test system: HT29 colon
T-47D breast = test system: T-47D breast

SMILES | TGI (HCT-116 colon) [µM] | TGI (SF-268 CNS) [µM] | TGI (HOP-62 NSCLC) [µM] | TGI (SF-295 CNS) [µM] | TGI (SK-OV-3 ovarian) [µM] | TGI (HOP-92 NSCLC) [µM] | TGI (MALME-3M melanoma) | TGI (LOX IMVI melanoma) [µM] | TGI (UO-31 renal) [µM] | TGI (NCI-H226 lung) [µM] | TGI (OVCAR-8 ovarian) [µM] | TGI (HT29 colon) [µM] | TGI (T-47D breast) [µM] | GI50 (HOP-92 NSCLC) | GI50 (SF-295 CNS) [µM] | GI50 (SK-OV-3 ovarian) [µM] | GI50 (UO-31 renal) [µM] | GI50 (HT29 colon) [µM]
N#CCCN(CCC#N)c1ccc(/C=C(/NC(=O)Nc2ccccc2Cl)NC(=O)c2cc([N+](=O)[O-])ccc2Cl)cc1 | > 100 | > 100 | > 100 | > 100 | > 100 | > 100 | > 100 µM | > 100 | > 100 | > 100 | > 100 | – | – | – | – | – | – | –
O=C(NCc1ccccc1)C1C(=O)C(=O)N(Cc2ccccc2)C1=O (stereo not given) | > 100 | > 100 | > 100 | > 100 | > 100 | > 100 | > 100 µM | > 100 | > 100 | > 100 | > 100 | > 100 | – | – | – | – | – | –
Cc1ccc(O)c(C(c2cc(C)ccc2O)c2cc([N+](=O)[O-])ccc2O)c1 | 56.1 | 24.6 | 26.3 | 36.9 | 37 | 38.9 | – | > 100 | 21.5 | 55.8 | 25.5 | 38.3 | 77.8 | – | – | – | – | –
Cc1cc(C)c(C(=O)C(C)C(c2ccccc2)c2ccc(Cl)cc2)c(C)c1 (stereo not given) | > 100 | > 100 | > 100 | > 100 | > 100 | > 100 | 71.9 µM and > 100 µM | – | > 100 | > 100 | > 100 | > 100 | – | 47.4 µM and > 100 µM | – | – | – | –
CCC(=O)CCC1=Nc2nnc(CCCCc3nnc4n3C(=O)C(CCC(=O)CC)=N4)n2C1=O | – | > 100 | > 100 | > 100 | > 100 | > 100 | > 100 µM | > 100 | > 100 | > 100 | > 100 | > 100 | – | – | – | – | – | –
COc1ccc(/C=C/c2nc(=S)[nH][nH]2)cc1OC | > 100 | > 100 | – | > 100 | – | > 100 | > 100 µM | > 100 | > 100 | > 100 | > 100 | > 100 | – | – | – | – | – | –
Clc1ccc(N2N=C(c3cccc(Nc4ccncc4)c3)CC2c2ccc(Br)cc2)cc1 (stereo not given) | – | – | – | 3.2 | 3.92 | 2.85 | – | – | 2.75 | – | – | 4.48 | – | 1.39 µM | 1.77 | 2 | 1.41 | 1.91
CC1OC(CC2C=CCc3c(O)c4c(c(O)c32)C(=O)c2ccccc2C4=O)CC(NC(=O)C(F)(F)F)C1O (stereo not given) | 11.4 | 22.2 | 19 | 18 | 24.6 | 8.39 | 10.1 µM | 20.6 | 42.7 | 31.6 | 15 | 40.5 | – | – | – | – | – | –
O=S(=O)(CF)OCCCCOS(=O)(=O)CF | > 100 | > 100 | – | > 100 | > 100 | 82.6 | > 100 µM | > 100 | > 100 | > 100 | > 100 | > 100 | – | – | – | – | – | –
CCCCCCCCCCCCCCCCCCOCC(O)CO (stereo not given) | > 25 | > 25 | 22.7 | > 25 | > 25 | 24.7 | > 21.1 µM | > 25 | 25 | > 24.2 | > 25 | > 15.8 | – | – | – | – | – | –
CC(O)C1OC(n2ccc(=O)[nH]c2=O)CC1n1cncn1 (stereo not given) | > 100 | > 100 | > 100 | > 100 | > 100 | – | > 100 µM | > 100 | > 100 | > 100 | > 100 | > 100 | – | – | – | – | – | –
CCCC(C(=O)Nc1cccc2[nH]cnc12)C(=O)OCC (stereo not given) | > 100 | > 100 | > 100 | > 100 | > 100 | > 100 | – | > 100 | > 100 | > 100 | > 100 | > 100 | > 100 | – | – | – | – | –
CN(C(=O)c1ccccc1)c1ccc2c(c1)C(=O)c1ccccc1C2=O | > 100 | > 100 | > 100 | > 100 | > 100 | > 100 | > 100 µM | > 100 | > 100 | > 100 | > 100 | > 100 | – | – | – | – | – | –
COC(=O)/C(=N\N)C(C(=O)C(=O)Nc1nc(=S)[nH][nH]1)c1nc2ccc([N+](=O)[O-])cc2[nH]c1=O (stereo not given) | > 100 | > 100 | > 100 | > 100 | > 100 | > 100 | > 100 µM | > 100 | > 100 | > 100 | > 100 | > 100 | – | – | – | – | – | –
